Structures can show the parent of a compound that is named as a salt.
Experiments:
Nav 1.7 [1] = target: T1, Nav 1.7 (Homo sapiens (Human), UniProt Q15858); test: Nav 1.7 in vitro PatchExpress (PX) assay, whole cell voltage clamp; type: cell-based; settings: 293 cells stably transfected with human Nav1.7; partially inactivated state (20 to 50% inactivation)
Protocol: Nav 1.7 In Vitro PatchExpress (PX) Assay
293 cells stably transfected with human Nav1.7 were recorded in whole cell voltage clamp mode with the PatchXpress automated electrophysiology system (Molecular Devices, LLC, Sunnyvale, Calif.). Compound effects were measured on a partially inactivated state of the sodium channel. Cells were clamped to a holding potential yielding 20 to 50% inactivation. To elicit sodium current, channels were activated by pulsing to −10 mV for 20 msec. This voltage protocol was repeated at a rate of 0.1 Hz throughout the experiment. A single concentration of test compound was applied to cells for a duration of 3 minutes. Peak sodium current was measured at the end of the compound addition period to determine percent inhibition.

Nav 1.7 [2] = target: T1, Nav 1.7; test: Nav 1.7 IonWorks Quattro (IWQ) in vitro assay, population patch-clamp; type: cell-based; settings: 293 cells stably transfected with Nav 1.7; block at 26th pulse to −20 mV;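 note: cells held at −110 mV for 3 s, then 26 pulses of 150 ms at 5 Hz, leak-corrected peak current, percent block measured before and after compound, 3–8 min exposure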
Protocol: (§1) Nav 1.7 and Nav 1.5 Ion Works Quattro (IWQ) In Vitro Assays
(§2) 293 cells stably transfected with either Nav 1.7 or with Nav 1.5 were recorded in population patch-clamp mode with the IonWorks® Quattro automated electrophysiology system in accordance with the manufacturer's specifications (Molecular Devices, LLC, Sunnyvale, Calif.). Sodium channel currents were measured in response to a train of depolarizations that induced successively greater inactivation.
(§3) Cells were held at −110 mV for three seconds (Nav 1.7) or half a second (Nav 1.5) from a holding voltage of −15 mV, then put through a series of 26 pulses of 150 msec duration to −20 mV at a frequency of 5 Hz. Cells were then left unclamped for a period of 3 to 8 minutes while a single concentration of test compound was added. Cells were then reclamped and put through the same voltage protocol. Current at the end of the 26th pulse to −20 mV was subtracted from the peak current evoked by the 26th pulse to −20 mV to correct for leak current. Percent block was calculated for each concentration in duplicate, and IC50 curves were fitted to percent block as a function of concentration.

Nav 1.5 = Nav 1.5 (Homo sapiens (Human), UniProt Q14524); test: cell-based;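 note: HEK293 cells stably expressing Nav1.5, sodium current at the 26th of 26 pulses to −20 mV (150 ms, 5 Hz) after compound versus before, leak-corrected, 3–8 min exposure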
Nav 1.5, sequence (Q14524 whole entry): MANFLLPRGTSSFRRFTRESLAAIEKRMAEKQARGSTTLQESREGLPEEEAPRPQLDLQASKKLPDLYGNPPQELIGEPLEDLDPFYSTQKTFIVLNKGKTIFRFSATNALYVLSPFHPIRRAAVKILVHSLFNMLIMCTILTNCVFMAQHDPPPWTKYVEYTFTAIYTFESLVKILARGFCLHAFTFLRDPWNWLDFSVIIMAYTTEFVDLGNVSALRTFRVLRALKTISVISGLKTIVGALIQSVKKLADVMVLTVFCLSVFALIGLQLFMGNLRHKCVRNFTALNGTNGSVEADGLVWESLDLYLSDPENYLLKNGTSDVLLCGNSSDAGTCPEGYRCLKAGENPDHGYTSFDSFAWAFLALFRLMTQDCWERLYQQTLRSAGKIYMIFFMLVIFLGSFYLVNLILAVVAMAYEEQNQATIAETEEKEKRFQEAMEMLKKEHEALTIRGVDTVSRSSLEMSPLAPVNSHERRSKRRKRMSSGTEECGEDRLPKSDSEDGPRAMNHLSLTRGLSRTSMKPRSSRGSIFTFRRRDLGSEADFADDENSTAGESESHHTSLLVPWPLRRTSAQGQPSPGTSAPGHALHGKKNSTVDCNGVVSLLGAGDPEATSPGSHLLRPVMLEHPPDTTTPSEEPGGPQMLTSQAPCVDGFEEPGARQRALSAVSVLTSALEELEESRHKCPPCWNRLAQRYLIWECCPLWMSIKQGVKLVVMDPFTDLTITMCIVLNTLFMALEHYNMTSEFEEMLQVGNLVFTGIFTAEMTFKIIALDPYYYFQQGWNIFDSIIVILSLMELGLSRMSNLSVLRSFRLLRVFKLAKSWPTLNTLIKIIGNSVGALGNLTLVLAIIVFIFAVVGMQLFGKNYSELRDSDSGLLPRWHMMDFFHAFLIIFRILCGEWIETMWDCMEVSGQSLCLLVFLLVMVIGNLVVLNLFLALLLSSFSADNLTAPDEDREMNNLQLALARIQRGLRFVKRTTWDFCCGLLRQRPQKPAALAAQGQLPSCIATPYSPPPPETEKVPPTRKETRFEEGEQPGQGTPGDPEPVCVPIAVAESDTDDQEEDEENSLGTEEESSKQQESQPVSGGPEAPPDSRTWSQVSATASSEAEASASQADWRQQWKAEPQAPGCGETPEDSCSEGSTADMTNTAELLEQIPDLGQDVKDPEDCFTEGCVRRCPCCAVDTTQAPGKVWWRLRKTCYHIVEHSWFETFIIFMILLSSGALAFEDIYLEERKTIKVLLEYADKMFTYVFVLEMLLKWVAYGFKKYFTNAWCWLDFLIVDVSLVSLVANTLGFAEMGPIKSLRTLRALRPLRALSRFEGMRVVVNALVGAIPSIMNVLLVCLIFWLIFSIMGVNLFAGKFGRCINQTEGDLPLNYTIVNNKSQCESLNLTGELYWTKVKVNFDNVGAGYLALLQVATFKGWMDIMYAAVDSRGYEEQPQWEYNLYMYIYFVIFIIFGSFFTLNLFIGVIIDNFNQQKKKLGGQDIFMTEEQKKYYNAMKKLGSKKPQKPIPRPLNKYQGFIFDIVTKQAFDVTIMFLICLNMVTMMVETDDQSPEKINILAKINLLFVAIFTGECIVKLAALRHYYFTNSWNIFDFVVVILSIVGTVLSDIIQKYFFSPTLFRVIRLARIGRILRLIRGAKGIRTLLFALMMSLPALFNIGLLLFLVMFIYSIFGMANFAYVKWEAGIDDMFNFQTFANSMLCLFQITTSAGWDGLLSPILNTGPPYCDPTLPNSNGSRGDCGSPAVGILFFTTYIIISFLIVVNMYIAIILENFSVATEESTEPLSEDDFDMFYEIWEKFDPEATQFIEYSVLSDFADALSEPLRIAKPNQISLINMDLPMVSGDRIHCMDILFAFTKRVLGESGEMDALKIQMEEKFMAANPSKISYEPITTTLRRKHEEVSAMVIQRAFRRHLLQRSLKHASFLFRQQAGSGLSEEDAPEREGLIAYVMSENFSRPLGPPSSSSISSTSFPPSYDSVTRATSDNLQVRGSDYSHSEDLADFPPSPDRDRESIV
Protocol: as §1, §2, §3

T1 sequence (Q15858 whole entry): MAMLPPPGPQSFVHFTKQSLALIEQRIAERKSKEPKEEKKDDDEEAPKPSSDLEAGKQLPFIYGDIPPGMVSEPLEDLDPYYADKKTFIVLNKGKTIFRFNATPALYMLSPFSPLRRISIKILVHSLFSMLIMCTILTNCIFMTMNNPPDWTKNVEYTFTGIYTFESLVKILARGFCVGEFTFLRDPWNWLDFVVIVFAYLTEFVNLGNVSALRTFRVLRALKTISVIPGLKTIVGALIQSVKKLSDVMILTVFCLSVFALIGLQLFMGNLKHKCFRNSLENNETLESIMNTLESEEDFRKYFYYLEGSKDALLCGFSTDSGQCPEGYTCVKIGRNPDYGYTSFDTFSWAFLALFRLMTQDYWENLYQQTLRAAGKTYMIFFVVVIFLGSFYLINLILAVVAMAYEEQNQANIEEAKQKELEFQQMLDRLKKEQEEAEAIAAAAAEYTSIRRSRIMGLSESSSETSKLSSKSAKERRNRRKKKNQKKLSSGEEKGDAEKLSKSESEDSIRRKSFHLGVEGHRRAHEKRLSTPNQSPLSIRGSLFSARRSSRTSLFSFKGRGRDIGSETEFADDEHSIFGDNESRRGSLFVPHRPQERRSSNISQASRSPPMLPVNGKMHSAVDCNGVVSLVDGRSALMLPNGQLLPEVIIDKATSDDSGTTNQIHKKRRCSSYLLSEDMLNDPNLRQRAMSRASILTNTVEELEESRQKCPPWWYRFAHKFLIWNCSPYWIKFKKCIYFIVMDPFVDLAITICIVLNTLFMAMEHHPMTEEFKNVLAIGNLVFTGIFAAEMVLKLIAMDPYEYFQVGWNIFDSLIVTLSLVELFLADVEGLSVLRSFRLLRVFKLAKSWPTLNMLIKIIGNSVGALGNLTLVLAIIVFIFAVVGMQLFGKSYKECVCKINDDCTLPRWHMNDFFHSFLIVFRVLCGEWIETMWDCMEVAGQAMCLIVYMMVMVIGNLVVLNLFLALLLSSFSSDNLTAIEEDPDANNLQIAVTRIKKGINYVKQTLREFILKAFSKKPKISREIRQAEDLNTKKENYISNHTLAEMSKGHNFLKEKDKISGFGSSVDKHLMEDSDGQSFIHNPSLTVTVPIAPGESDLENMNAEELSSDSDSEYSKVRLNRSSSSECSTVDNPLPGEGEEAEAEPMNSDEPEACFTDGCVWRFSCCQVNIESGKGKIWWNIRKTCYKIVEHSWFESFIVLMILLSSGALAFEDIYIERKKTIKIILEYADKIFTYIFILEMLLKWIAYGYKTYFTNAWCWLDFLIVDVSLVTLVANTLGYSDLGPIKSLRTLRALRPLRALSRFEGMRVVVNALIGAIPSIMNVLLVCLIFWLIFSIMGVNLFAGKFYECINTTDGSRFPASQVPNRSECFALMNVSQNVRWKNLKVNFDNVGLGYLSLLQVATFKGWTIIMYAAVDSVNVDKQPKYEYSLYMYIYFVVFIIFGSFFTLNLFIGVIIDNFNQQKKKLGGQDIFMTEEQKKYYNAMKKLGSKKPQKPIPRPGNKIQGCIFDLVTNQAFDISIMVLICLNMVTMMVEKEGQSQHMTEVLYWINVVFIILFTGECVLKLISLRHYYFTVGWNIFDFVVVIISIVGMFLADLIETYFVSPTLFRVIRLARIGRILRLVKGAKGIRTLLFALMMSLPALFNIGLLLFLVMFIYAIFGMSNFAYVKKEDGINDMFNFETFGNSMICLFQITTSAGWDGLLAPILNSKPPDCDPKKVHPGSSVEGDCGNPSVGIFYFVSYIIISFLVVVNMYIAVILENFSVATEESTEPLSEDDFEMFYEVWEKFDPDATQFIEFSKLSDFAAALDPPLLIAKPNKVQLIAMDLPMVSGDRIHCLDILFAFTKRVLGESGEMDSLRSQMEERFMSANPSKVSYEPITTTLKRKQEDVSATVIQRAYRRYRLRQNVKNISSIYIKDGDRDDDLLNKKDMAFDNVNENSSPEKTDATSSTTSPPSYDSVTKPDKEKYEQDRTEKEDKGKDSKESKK

Row | IC50 (Nav 1.7 [1]) | IC50 (Nav 1.7 [2]) | SMILES | IC50 (Nav 1.5)
1 | 16.5 µM | 15.8 µM | CC(C)(C)OC(=O)N1CCc2c(cccc2-c2cccc3c2CCN(S(=O)(=O)Nc2ncns2)C3)C1 [Example 58, tert-Butyl 2′-(N-(1,2,4-thiadiazol-5-yl)sulfamoyl)-1′,2′,3,3′,4,4′-hexahydro-[5,5′-biisoquinoline]-2(1H)-carboxylate] | > 10 µM
2 | > 30 µM | 3.87 µM | O=S(=O)(Nc1ncns1)N1CCc2c(cccc2-c2cccc3c2CCNC3)C1 [Example 13, N-(1,2,4-Thiadiazol-5-yl)-1′,2′,3,3′,4,4′-hexahydro-[5,5′-biisoquinoline]-2(1H)-sulfonamide hydrochloride] | > 10 µM
3 | 0.07 µM | 0.0453 µM | Nc1cc(-c2cc(C(F)(F)F)ccc2-c2cccc3c2CCN(S(=O)(=O)Nc2ncns2)C3)ccn1 [Example 18, 5-(2-(2-Aminopyridin-4-yl)-4-(trifluoromethyl)phenyl)-N-(1,2,4-thiadiazol-5-yl)-3,4-dihydroisoquinoline-2(1H)-sulfonamide] | > 10 µM
4 | 0.17 µM | 0.315 µM | O=S(=O)(Nc1ncc(F)s1)N1CCc2c(cccc2-c2ccc(C(F)(F)F)cc2C2CCNCC2)C1 [Example 35, N-(5-Fluorothiazol-2-yl)-5-(2-(piperidin-4-yl)-4-(trifluoromethyl)phenyl)-3,4-dihydroisoquinoline-2(1H)-sulfonamide hydrochloride] | > 10 µM
5 | 1.21 µM | 0.141 µM | COc1cc(C(F)(F)F)ccc1-c1ncnc2c1CCN(S(=O)(=O)Nc1ncns1)C2 [Example 61, 4-(2-methoxy-4-(trifluoromethyl)phenyl)-N-(1,2,4-thiadiazol-5-yl)-5,6-dihydropyrido[3,4-d]pyrimidine-7(8H)-sulfonamide] | > 10 µM
6 | 8.05 µM | – | COc1cc(-c2ccc(F)c(F)c2)ccc1-c1cccc2c1CCN(S(=O)(=O)Nc1nncs1)C2 [Example 62, 5-(3′,4′-difluoro-3-methoxy-[1,1′-biphenyl]-4-yl)-N-(1,3,4-thiadiazol-2-yl)-3,4-dihydroisoquinoline-2(1H)-sulfonamide] | –
7 | 1.34 µM | 0.228 µM | Cc1cn(-c2cc(C(F)(F)F)ccc2-c2cccc3c2CCN(S(=O)(=O)Nc2ncc(F)s2)C3)cn1 [Example 42, N-(5-fluorothiazol-2-yl)-5-(2-(4-methyl-1H-imidazol-1-yl)-4-(trifluoromethyl)phenyl)-3,4-dihydroisoquinoline-2(1H)-sulfonamide] | > 10 µM
8 | 1.71 µM | 0.378 µM | O=S(=O)(Nc1ncns1)N1CCc2c(cccc2-c2ccc(C(F)(F)F)cc2C2=CCOCC2)C1 [Example 19, 5-(2-(3,6-Dihydro-2H-pyran-4-yl)-4-(trifluoromethyl)phenyl)-N-(1,2,4-thiadiazol-5-yl)-3,4-dihydroisoquinoline-2(1H)-sulfonamide] | > 10 µM
9 | – | 6.9 µM | O=S(=O)(Nc1ncns1)N1CCc2c(cccc2-c2cncc3ccccc23)C1 [Example 25, N-(1,2,4-Thiadiazol-5-yl)-3′,4′-dihydro-[4,5′-biisoquinoline]-2′(1′H)-sulfonamide] | > 10 µM
10 | – | 14.9 µM | CN1CC=C(c2cc(Cl)cc(F)c2-c2cccc3c2CCN(S(=O)(=O)Nc2ncc(F)s2)C3)CC1 [Example 54, 5-(4-Chloro-2-fluoro-6-(1-methyl-1,2,3,6-tetrahydropyridin-4-yl)phenyl)-N-(5-fluorothiazol-2-yl)-3,4-dihydroisoquinoline-2(1H)-sulfonamide] | > 10 µM
11 | 0.61 µM | 0.477 µM | O=S(=O)(Nc1ncns1)N1CCc2c(cccc2-c2ccc(C(F)(F)F)cc2Cl)C1 [Example 9, 5-(2-Chloro-4-(trifluoromethyl)phenyl)-N-(1,2,4-thiadiazol-5-yl)-3,4-dihydroisoquinoline-2(1H)-sulfonamide] | > 10 µM
12 | – | 9.44 µM | COc1cc(C(F)(F)F)ccc1-c1cccc2c1CN(S(=O)(=O)Nc1ncns1)CC2 [Example 55, 8-(2-Methoxy-4-(trifluoromethyl)phenyl)-N-(1,2,4-thiadiazol-5-yl)-3,4-dihydroisoquinoline-2(1H)-sulfonamide] | > 10 µM
13 | 19 µM | 3.94 µM | O=S(=O)(Nc1ccncn1)N1CCc2c(cccc2-c2ccc(C(F)(F)F)cc2C2=CCNCC2)C1 [Example 37, N-(Pyrimidin-4-yl)-5-(2-(1,2,3,6-tetrahydropyridin-4-yl)-4-(trifluoromethyl)phenyl)-3,4-dihydroisoquino line-2(1H)-sulfonamide] | > 10 µM
14 | – | 7.1 µM | CC(C)(C)OC(=O)N1CC=C(c2cccc3c2CCN(S(=O)(=O)Nc2ncns2)C3)CC1 [Example 57, tert-Butyl 4-(2-(N-(1,2,4-thiadiazol-5-yl)sulfamoyl)-1,2,3,4-tetrahydroisoquinolin-5-yl)-5,6-dihydropyridine-1(2H)-carboxylate] | > 10 µM
15 | – | 5.83 µM | COc1cncc(-c2cc(C(F)(F)F)ccc2-c2cccc3c2CCN(S(=O)(=O)Nc2ncns2)C3)c1 [Example 20, 5-(2-(5-Methoxypyridin-3-yl)-4-(trifluoromethyl)phenyl)-N-(1,2,4-thiadiazol-5-yl)-3,4-dihydroisoquinoline-2(1H)-sulfonamide] | > 10 µM
16 | 6.19 µM | – | COc1cc(C(F)(F)F)ccc1-c1ccnc2c1CCN(S(=O)(=O)Nc1ccncn1)C2 [Example 64, 4-(2-methoxy-4-(trifluoromethyl)phenyl)-N-4-pyrimidinyl-5,8-dihydro-1,7-naphthyridine-7(6H)-sulfonamide] | –
17 | 11.2 µM | – | COc1ccc(-c2ccc(F)c(F)c2)cc1-c1cccc2c1CCN(S(=O)(=O)Nc1nncs1)C2 [Example 63, 5-(3′,4′-difluoro-4-methoxy-[1,1′-biphenyl]-3-yl)-N-(1,3,4-thiadiazol-2-yl)-3,4-dihydroisoquinoline-2(1H)-sulfonamide] | –
18 | – | 7.6 µM | COc1ncccc1-c1cccc2c1CCN(S(=O)(=O)Nc1ncns1)C2 [Example 50, 5-(2-Methoxypyridin-3-yl)-N-(1,2,4-thiadiazol-5-yl)-3,4-dihydroisoquinoline-2(1H)-sulfonamide] | > 10 µM
19 | – | 19.1 µM | O=S(=O)(Nc1ncns1)N1CCc2c(cccc2-c2cccc3[nH]ncc23)C1 [Example 51, 5-(1H-Indazol-4-yl)-N-(1,2,4-thiadiazol-5-yl)-3,4-dihydroisoquinoline-2(1H)-sulfonamide] | > 10 µM
20 | – | 1.8 µM | Cc1cncc(-c2cc(C(F)(F)F)ccc2-c2cccc3c2CCN(S(=O)(=O)Nc2ncns2)C3)c1 [Example 21, 5-(2-(5-Methylpyridin-3-yl)-4-(trifluoromethyl)phenyl)-N-(1,2,4-thiadiazol-5-yl)-3,4-dihydroisoquinoline-2(1H)-sulfonamide] | 4.08 µM
21 | 0.81 µM | – | COc1cc(C(F)(F)F)ccc1-c1ncnc2c1CCN(S(=O)(=O)Nc1ncc(F)s1)C2 [Example 60, N-(5-fluorothiazol-2-yl)-4-(2-methoxy-4-(trifluoromethyl)phenyl)-5,6-dihydropyrido[3,4-d]pyrimidine-7(8H)-sulfonamide] | –

— patent US9051311B2, “Sulfamide sodium channel inhibitors” (AMGEN INC., priority 2012, dated 2015)
